Where a name gives a salt, the structure may show the parent alone. Read-outs that look alike come from different tables or passages of the source.
Assays:
HTT mRNA = test: Splicing RT-qPCR assay, HTT canonical (CJ) and alternative (AJ) junction mRNA; format: cell-based, human; settings: Homo sapiens, A673 or K562 cells, 24 hours compound treatment; for IC50: read-out: HTT CJ (IC50, decrease in canonical junction mRNA); for AC50: read-out: HTT AJ (AC50, increase in alternative junction mRNA)
Summary of the method: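 A673 or K562 cells were treated 24 h at 37 °C with an 11-point 3-fold compound dilution series (top 10 uM, DMSO ≤0.25%). Lysates went to one-step RT-qPCR measuring canonical (CJ) and alternative-exon (AJ) junction transcripts, normalized to GAPDH, GUSB or PPIA.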

MYB = test: Protein abundance, HiBit-assay system (Promega), MYB; format: cell-based; settings: Table 6; HiBiT-modified K562 cells, 24 hours
Description: (§1) In some embodiments, a compound of Formula (I) or (II) or a pharmaceutically acceptable salt thereof, e.g., as described herein, modulates the expression of a target protein (e.g., HTT or MYB) in a reference cell or sample. In an embodiment, a compound of Formula (I) or (II) or a pharmaceutically acceptable salt thereof, e.g., as described herein, increases the expression of a target protein (e.g., HTT or MYB) in a reference cell or sample. In an embodiment, a compound of Formula (I) or (II) or a pharmaceutically acceptable salt thereof, e.g., as described herein, decreases the expression of a target protein (e.g., HTT or MYB) in a reference cell or sample. The effect of an exemplary compound of Formula (I) or (II) on protein abundance may be measured using a standard assay for measuring protein abundance, such as the HiBit-assay system (Promega). In this assay, percent response for each respective cell line may be as calculated at each compound concentration as follows: % response=100*(S−PC)/(NC−PC). For the normalized response at each concentration, a four-parameter logistical regression may be fit to the data and the response may be interpolated at the 50% value to determine a concentration for protein abundance at 50% (IC50) an untreated control. In an embodiment, a compound of Formula (I) or (II) or a pharmaceutically acceptable salt thereof, e.g., as described herein, has a protein abundance response less than 100 nM. In an embodiment, a compound of Formula (I) or (II) or a pharmaceutically acceptable salt thereof, e.g., as described herein, has a protein abundance response between 100-1000 nM. In an embodiment, a compound of Formula (I) or (II) or a pharmaceutically acceptable salt thereof, e.g., as described herein, has a protein abundance response greater than 1000 nM. In an embodiment, a compound of Formula (I) or (II) or a pharmaceutically acceptable salt thereof, e.g., as described herein, has a protein abundance response greater than 10 uM. In an embodiment, a compound of Formula (I) or (II) or a pharmaceutically acceptable salt thereof, e.g., as described herein, modulates the protein abundance of a target protein by about 1%, 5%, 10%, 15%, 20%, 25%, 30%, 35%, 40%, 45%, 50%, 55%, 60%, 65%, 70%, 75%, 80%, 85%, 90%, 95%, 99% or more, e.g., compared with a reference compound.

HTT = test: Protein abundance, HiBit-assay system (Promega), HTT; format: cell-based; settings: Table 6; HiBiT-modified K562 cells, 24 hours
Description: as §1

Cc1cn2cc(NC(=O)c3ccc(N4CC(C)(C)NC(C)(C)C4)c4cc(C)oc34)cc(F)c2n1 [Compound 195]
IC50 (HTT mRNA; 24 h): > 10000 nM
AC50 (HTT mRNA): > 10000 nM
IC50 (MYB): 1000 to 10000 nM
IC50 (HTT): > 10000 nM

CCNC1CCN(c2ccc(C(=O)Nc3cc(F)c4nc(C)cn4c3)c3oc(C)cc23)CC1 [Compound 196]
IC50 (MYB): < 100 nM
IC50 (HTT): 100 to 1000 nM

Cc1cn2cc(NC(=O)c3ccc(N4CCC(NC(C)(C)C)CC4)c4cc(C)oc34)cc(F)c2n1 [Compound 197]
IC50 (HTT mRNA; 24 h): > 10000 nM
AC50 (HTT mRNA): > 10000 nM
IC50 (MYB): 1000 to 10000 nM
IC50 (HTT): > 10000 nM

CC1=CC2C(N3CCC(N(C)C)CC3)=CC=C(C(=O)Nc3cc(F)c4nc(C)cn4c3)C2O1 (stereo not shown) [Compound 198]
IC50 (MYB): < 100 nM
IC50 (HTT): 1000 to 10000 nM

Cc1cn2cc(NC(=O)c3ccc(N4CCN5CCCC5C4)c4cc(C)oc34)cc(F)c2n1 (stereo not shown) [Compound 199]
IC50 (HTT mRNA; 24 h): 100 to 1000 nM
AC50 (HTT mRNA): 100 to 1000 nM
IC50 (MYB): < 100 nM
IC50 (HTT): 1000 to 10000 nM

Cc1cn2cc(NC(=O)c3ccc(C4CCNCC4)c4cn(C)nc34)cc(F)c2n1 [Compound 208]
IC50 (MYB): < 100 nM
IC50 (HTT): 100 to 1000 nM

Cc1cc2c(N3CCNCC3)ccc(C(=O)Nc3cc(F)c4cn(C)nc4c3)c2o1 [Compound 217]
IC50 (HTT mRNA; 24 h): > 10000 nM
AC50 (HTT mRNA): > 10000 nM
IC50 (MYB): > 10000 nM
IC50 (HTT): > 10000 nM

CCn1cc2c(N3CC[C@@H](NC)C3)ccc(C(=O)Nc3cc(Cl)c4nc(C)cn4c3)c2n1 [Compound 556, N-{8-chloro-2-methylimidazo[1,2-a]pyridin-6-yl}-2-ethyl-4-[(3R)-3-(methylamino)pyrrolidin-1-yl]indazole-7-carboxamide]
IC50 (HTT mRNA; 24 h): > 10000 nM
AC50 (HTT mRNA): > 10000 nM
IC50 (MYB): 1000 to 10000 nM
IC50 (HTT): 1000 to 10000 nM

CCn1cc2c(N3CCC(N)(CC)CC3)cc(F)c(C(=O)Nc3cc(F)c4nc(C)cn4c3)c2n1 [Compound 557, 4-(4-amino-4-ethylpiperidin-1-yl)-2-ethyl-6-fluoro-N-{8-fluoro-2-methylimidazo[1,2-a]pyridin-6-yl}indazole-7-carboxamide]
IC50 (HTT mRNA; 24 h): 100 to 1000 nM
AC50 (HTT mRNA): 100 to 1000 nM
IC50 (MYB): < 100 nM
IC50 (HTT): 100 to 1000 nM

CCn1cc2c(N3CCC(N[C@H]4C[C@@H](O)C4)CC3)ccc(C(=O)Nc3cc(F)c4nc(C)cn4c3)c2n1 [Compound 559, 2-ethyl-N-{8-fluoro-2-methylimidazo[1,2-a]pyridin-6-yl}-4-(4-{[(1s,3s)-3-hydroxycyclobutyl]amino}piperidin-1-yl) indazole-7-carboxamide]
IC50 (HTT mRNA; 24 h): 1000 to 10000 nM
AC50 (HTT mRNA): 1000 to 10000 nM
IC50 (MYB): < 100 nM
IC50 (HTT): 100 to 1000 nM

CCn1cc2c(N3CCC(N[C@H]4C[C@H](O)C4)CC3)ccc(C(=O)Nc3cc(F)c4nc(C)cn4c3)c2n1 [Compound 560, 2-ethyl-N-{8-fluoro-2-methylimidazo[1,2-a]pyridin-6-yl}-4-(4-{[(1r,3r)-3-hydroxycyclobutyl]amino}piperidin-1-yl) indazole-7-carboxamide]
IC50 (HTT mRNA; 24 h): 1000 to 10000 nM
AC50 (HTT mRNA): 1000 to 10000 nM
IC50 (MYB): < 100 nM
IC50 (HTT): 1000 to 10000 nM

Cc1cn2cc(NC(=O)c3ccc(N4CC[C@@H](N5CCNCC5)C4)c4cn(C)nc34)cc(F)c2n1 [Compound 562, N-{8-fluoro-2-methylimidazo[1,2-a]pyridin-6-yl}-2-methyl-4-[(3R)-3-(piperazin-1-yl)pyrrolidin-1-yl]indazole-7-carboxamide hydrochloride]
IC50 (HTT mRNA; 24 h): > 10000 nM
AC50 (HTT mRNA): > 10000 nM
IC50 (MYB): > 10000 nM
IC50 (HTT): > 10000 nM

Cc1cn2cc(NC(=O)c3ccc(N4CC5NC5C4)c4cn(C)nc34)cc(F)c2n1 (stereo not shown) [Compound 563, 4-{3,6-diazabicyclo[3.1.0]hexan-3-yl}-N-{8-fluoro-2-methylimidazo[1,2-a]pyridin-6-yl}-2-methylindazole-7-carboxamide]
AC50 (HTT mRNA): 100 to 1000 nM
IC50 (HTT mRNA): 100 to 1000 nM
IC50 (MYB): < 100 nM
IC50 (HTT): 100 to 1000 nM

Cc1cn2cc(NC(=O)c3ccc(N4C5CNCC54)c4cn(C)nc34)cc(F)c2n1 (stereo not shown) [Compound 564, 4-{3,6-diazabicyclo[3.1.0]hexan-6-yl}-N-{8-fluoro-2-methylimidazo[1,2-a]pyridin-6-yl}-2-methylindazole-7-carboxamide]
AC50 (HTT mRNA): 100 to 1000 nM
IC50 (HTT mRNA): 100 to 1000 nM
IC50 (MYB): 100 to 1000 nM
IC50 (HTT): 100 to 1000 nM

CCn1cc2c(N3CCNCC3)ccc(C(=O)Nc3cc(F)c4nc(C)c(F)n4c3)c2n1 [Compound 565, N-{3,8-difluoro-2-methylimidazo[1,2-a]pyridin-6-yl}-2-ethyl-4-(piperazin-1-yl) indazole-7-carboxamide; trifluoroacetic acid]
IC50 (HTT mRNA; 24 h): > 10000 nM
AC50 (HTT mRNA): > 10000 nM
IC50 (MYB): 1000 to 10000 nM
IC50 (HTT): 1000 to 10000 nM

CCn1cc2c(N3CCNCC3)ccc(C(=O)Nc3cn4cc(C)nc4c(Oc4ccccc4)n3)c2n1 [Compound 566, 2-ethyl-N-{2-methyl-8-phenoxyimidazo[1,2-a]pyrazin-6-yl}-4-(piperazin-1-yl) indazole-7-carboxamide]
IC50 (HTT mRNA; 24 h): 1000 to 10000 nM
AC50 (HTT mRNA): 1000 to 10000 nM
IC50 (MYB): 100 to 1000 nM
IC50 (HTT): 1000 to 10000 nM

Reference: patent publication US20250154169A1, “COMPOUNDS AND METHODS FOR MODULATING SPLICING” (REMIX THERAPEUTICS INC., priority 2021, published 2025)
